Some test systems named below: SN12C renal; NCI-H460 lung; SF-268 CNS; OVCAR-3 ovarian; HOP-62 NSCLC; SF-295 CNS; HOP-92 NSCLC; OVCAR-4 ovarian; NCI/ADR-RES ovarian; HT29 colon.
Holding throughout (assay): inhibition of tumour cell growth, NCI panel, 48 h

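In this assay, cells in 96-well plates receive the compound at five concentrations for 48 hours. Endpoints are linearly interpolated between the surrounding concentrations. At the TGI there is no net growth.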

In the case of `Cc1cc(Cl)nc2nc(Cl)c(N)cc12`, the TGI in the experiment with SN12C renal is 3.21 µM; in the experiment on NCI-H460 lung, 5.43 µM; in the experiment on SF-268 CNS it was 3.5 µM; in the experiment with OVCAR-3 ovarian it was 3.27 µM; in the experiment on HOP-62 NSCLC, 19 µM; in the experiment with SF-295 CNS, 29.9 µM. In addition, the TGI came to 4.46 µM with HOP-92 NSCLC, 8.91 µM in the experiment with OVCAR-4 ovarian and 58.2 µM in the experiment on NCI/ADR-RES ovarian.
Take `CC1CN=C(NS(=O)(=O)c2cc(C(=O)Nc3ccc(Cl)cc3)c(Cl)cc2S)NN1` (stereo not drawn): the TGI with SN12C renal was greater than 100 µM; in the experiment on NCI-H460 lung it was greater than 100 µM; in the experiment on SF-268 CNS, 52.1 µM; with OVCAR-3 ovarian, greater than 100 µM; with HOP-62 NSCLC it was greater than 100 µM; with SF-295 CNS, greater than 100 µM. Moreover, the TGI with HT29 colon, with OVCAR-4 ovarian and with NCI/ADR-RES ovarian was greater than 100 µM in each case.
For the compound `Cc1c[n+]2c3ccccc3c3ccccc3c2s1`, the TGI with SN12C renal worked out at 15.5 µM; in the experiment on NCI-H460 lung, 25.5 µM; in the experiment with SF-268 CNS, 3.27 µM; in the experiment with OVCAR-3 ovarian, 12.9 µM; with HOP-62 NSCLC, 28 µM; in the experiment on SF-295 CNS, 33.5 µM. Besides, the TGI in the experiment on HT29 colon is greater than 100 µM; in the experiment with HOP-92 NSCLC, 47.4 µM; with OVCAR-4 ovarian, 32.7 µM.
Turning to `NNC(=O)CC(=O)Nc1cccc(Cl)c1`, the TGI in the experiment on SN12C renal, in the experiment on NCI-H460 lung, in the experiment on SF-268 CNS, in the experiment on OVCAR-3 ovarian, in the experiment with HOP-62 NSCLC and in the experiment with SF-295 CNS was greater than 100 µM throughout. Moreover, the TGI with HT29 colon, in the experiment with HOP-92 NSCLC and in the experiment with OVCAR-4 ovarian was greater than 100 µM throughout.
`C=CCNC(=S)N1CC(C)C(=O)Nc2cc(Cl)ccc21` (stereo not drawn): the TGI in the experiment on SN12C renal, in the experiment with NCI-H460 lung, in the experiment on SF-268 CNS, in the experiment with HOP-62 NSCLC, in the experiment with SF-295 CNS and in the experiment on HT29 colon was greater than 100 µM throughout. Also, the TGI in the experiment with HOP-92 NSCLC and in the experiment on OVCAR-4 ovarian was greater than 100 µM throughout.
As to `S=C1NC2=C(COc3ccccc32)C(c2ccc(Cl)cc2)N1` (stereo not drawn), the TGI in the experiment with SN12C renal is 8.64 µM; in the experiment with SF-268 CNS it was 39.7 µM; with OVCAR-3 ovarian, 28.7 µM; in the experiment on HOP-62 NSCLC, 31 µM; with SF-295 CNS it was 29 µM; with HT29 colon it was 31.7 µM. This compound registered a TGI in the experiment with NCI/ADR-RES ovarian of 41.3 µM.
As for `C=CC(O)(CBr)CCC(Br)C(=C)C` (stereo not drawn), the TGI in the experiment on SN12C renal, in the experiment on NCI-H460 lung, with SF-268 CNS, with OVCAR-3 ovarian, with HOP-62 NSCLC and with SF-295 CNS was greater than 10 µM each time. Besides, the TGI in the experiment on HT29 colon, in the experiment with OVCAR-4 ovarian and in the experiment on NCI/ADR-RES ovarian was greater than 10 µM in each case.
For `O=P1(c2ccccc2)c2ccccc2-c2ccccc21`, the TGI with SN12C renal, in the experiment with SF-268 CNS, in the experiment with OVCAR-3 ovarian, in the experiment with HOP-62 NSCLC, in the experiment on SF-295 CNS and in the experiment on HOP-92 NSCLC was greater than 100 µM throughout.
As to `CC1(c2sccc2Cl)CC(c2sccc2Cl)=C(C#N)C(=C(C#N)C#N)N1` (stereo not drawn), the TGI with SN12C renal came out at 42.9 µM; in the experiment on NCI-H460 lung it was 43.6 µM; with SF-268 CNS, 38.5 µM; in the experiment on OVCAR-3 ovarian it was 29.8 µM; with HOP-62 NSCLC it was 37.3 µM; in the experiment on SF-295 CNS it was 35.2 µM. The TGI in the experiment with HT29 colon worked out at 54.6 µM; with OVCAR-4 ovarian, 66.1 µM; with NCI/ADR-RES ovarian it was 57.8 µM.
Regarding `S=C(NCCc1ccccn1)N/N=C/c1ccccn1`, the TGI is 13.3 µM with SN12C renal; 4.66 µM in the experiment on NCI-H460 lung; greater than 100 µM in the experiment on SF-268 CNS; greater than 100 µM in the experiment on OVCAR-3 ovarian; 0.0696 µM in the experiment on HOP-62 NSCLC; greater than 100 µM in the experiment on SF-295 CNS. The TGI in the experiment with HT29 colon is greater than 100 µM; in the experiment on OVCAR-4 ovarian, greater than 74.7 µM; with NCI/ADR-RES ovarian, greater than 100 µM.
Consider `COc1ccc(C2=NN(c3ccccc3)C[N+](c3ccc(C)cc3)=N2)cc1`, for which the TGI with SN12C renal was greater than 100 µM; in the experiment on NCI-H460 lung it was greater than 100 µM; in the experiment with SF-268 CNS, greater than 100 µM; in the experiment on OVCAR-3 ovarian, 47.2 µM; with HOP-62 NSCLC, greater than 100 µM; in the experiment on SF-295 CNS, greater than 100 µM. Moreover, the TGI in the experiment on HT29 colon is greater than 100 µM; in the experiment on OVCAR-4 ovarian it was 43.3 µM.
With `COc1ccc(/C=C2/CSCC3=C2NC(=S)NC3c2ccc(OC)c(OC)c2OC)c(OC)c1OC` (stereo not drawn), the TGI is 71.8 µM in the experiment with SN12C renal; greater than 100 µM with NCI-H460 lung; greater than 100 µM in the experiment on SF-268 CNS; greater than 100 µM in the experiment with OVCAR-3 ovarian; 47.9 µM with HOP-62 NSCLC; greater than 100 µM with SF-295 CNS. For the same compound, the TGI with HT29 colon is 61.1 µM; in the experiment with OVCAR-4 ovarian, 74.4 µM; in the experiment on NCI/ADR-RES ovarian, 32.2 µM.
In the case of `COC1CCON1C(=O)c1ccccc1` (stereo not drawn), the TGI in the experiment with SN12C renal, in the experiment with NCI-H460 lung, with SF-268 CNS, in the experiment on OVCAR-3 ovarian, in the experiment on HOP-62 NSCLC and in the experiment with SF-295 CNS was greater than 10 µM in each case. Also, the TGI in the experiment with HT29 colon, with OVCAR-4 ovarian and with NCI/ADR-RES ovarian was greater than 10 µM in each case.
As to `CC1(C)[C@@H]2CC[C@]1(C)[C@H](OC(=O)/C=C/c1ccccc1)C2`, the TGI in the experiment with SN12C renal was 34.3 µM; in the experiment on NCI-H460 lung it was greater than 100 µM; in the experiment on SF-268 CNS it was 33.9 µM; in the experiment with OVCAR-3 ovarian it was 19.6 µM; with HOP-62 NSCLC, 63.1 µM; in the experiment on SF-295 CNS it was 36.3 µM. Also, the figures for the TGI in the experiment on HT29 colon, with OVCAR-4 ovarian and with NCI/ADR-RES ovarian were 33.7 µM, 55.1 µM and 37.1 µM, respectively.
As for `Oc1ccc([C@H]2c3c(O)cc(O)cc3C3c4c(cc(O)cc4[C@@H]2[C@H]2c4cc(O)cc5c4C(c4cc(O)cc(O)c4[C@@H]2c2ccc(O)cc2)[C@@H](c2ccc(O)cc2)O5)O[C@@H]3c2ccc(O)cc2)cc1` (stereo partly drawn), the TGI in the experiment with SN12C renal, with NCI-H460 lung, with SF-268 CNS, with OVCAR-3 ovarian, in the experiment on HOP-62 NSCLC and in the experiment on SF-295 CNS was greater than 100 µM each time. Besides, the TGI in the experiment on HT29 colon was greater than 100 µM; with OVCAR-4 ovarian it was 8.53 µM; with NCI/ADR-RES ovarian, greater than 100 µM.

(Values after PubChem BioAssay (NCI).)
